Test results taken from patent publication US20020086895A1, “Methods of treating fungal infections” (priority 1985, published 2002).

What was measured:
[1] = tested on: A. fumigatus; assay: Antifungal screen of matrix-synthesis aurones in 96-well plates, A. fumigatus; type: cell-based, Aspergillus fumigatus
Protocol: (§1) Thirty-eight 96-well plates were prepared with the above samples and tested against both C. albicans and A. fumigatus at either 8 μg/ml or 12.5 μg/ml. Plates with high activity were retested at the same concentration to confirm activity.
(§2) These compounds have formulae where W′ is OH, V is 3′,4′-(1,1-dimethylpropyloxy) to form a dihydropyran series, and X is selected from 3,4-dimethoxyphenyl, 4-t-butylphenyl, 2(prop-2-enyloxy)phenyl, 3-phenoxyphenyl, 3-ethoxy-4-hydroxyphenyl, 6-cyclohexenyl, and norborn-4-yl.

[2] = tested on: C. albicans; assay: Antifungal screen of matrix-synthesis aurones in 96-well plates, C. albicans; type: cell-based, Candida albicans
Protocol: as §1, §2

Compound | AF percent inhibition ([1]; @12.5 μg/ml) | CA percent inhibition ([2]; @12.5 μg/ml) | AF percent inhibition ([1]; @8 μg/ml) | CA percent inhibition ([2]; @8 μg/ml)
C=CCOc1ccccc1C=C1Oc2cc(O)c(CC=C(C)C)c(O)c2C1=O | 40% | 59% | – | –
CC(C)=CCc1c(O)cc2c(c1O)C(=O)C(=Cc1ccc(Oc3ccccc3)cc1)O2 | CA 0% AF 0% @12.5 μg/ml | – | – | –
CC(C)=CCc1c(O)cc2c(c1O)C(=O)C(=Cc1cccc(O)c1O)O2 | 31% | 94% | – | –
CC(C)=CCc1c(O)cc2c(c1O)C(=O)C(=Cc1ccc(O)c(O)c1O)O2 | 0% | 89% | – | –
C=CCOc1ccccc1C=C1Oc2cc(O)cc(O)c2C1=O | 43% | 0% | – | –
O=C1C(=Cc2ccc(O)c(O)c2)Oc2cc(O)cc(O)c21 | 36% | 95% | – | –
O=C1C(=Cc2ccc(Oc3ccccc3)cc2)Oc2cc(O)cc(O)c21 | 48% | 57% | – | –
O=C1C(=Cc2cccc(O)c2O)Oc2cc(O)cc(O)c21 | 27% | 79% | – | –
O=C1C(=Cc2ccc(O)c(O)c2O)Oc2cc(O)cc(O)c21 | 44% | 94% | – | –
C=CCOc1ccccc1C=C1Oc2cc3c(c(O)c2C1=O)CCC(C)(C)O3 | – | – | 94% | 67%
CC1(C)CCc2c(cc3c(c2O)C(=O)C(=Cc2ccc(O)c(O)c2)O3)O1 | – | – | 0% | 87%
CC1(C)CCc2c(cc3c(c2O)C(=O)C(=Cc2ccc(Oc4ccccc4)cc2)O3)O1 | – | – | 76% | 80%
CC1(C)CCc2c(cc3c(c2O)C(=O)C(=Cc2cccc(O)c2O)O3)O1 | – | – | 52% | 96%
CC1(C)CCc2c(cc3c(c2O)C(=O)C(=Cc2ccc(O)c(O)c2O)O3)O1 | – | – | 69% | 0%
C=CCOc1ccccc1C=C1Oc2cc(O)c(CC=C)c(O)c2C1=O | – | – | 96% | 53%
C=CCc1c(O)cc2c(c1O)C(=O)C(=Cc1ccc(O)c(O)c1)O2 | – | – | CA 0% AF 0% @8 μg/ml | CA 0% AF 0% @8 μg/ml
C=CCc1c(O)cc2c(c1O)C(=O)C(=Cc1ccc(Oc3ccccc3)cc1)O2 | – | – | 68% | 52%
C=CCc1c(O)cc2c(c1O)C(=O)C(=Cc1cccc(O)c1O)O2 | – | – | 0% | 45%
C=CCc1c(O)cc2c(c1O)C(=O)C(=Cc1ccc(O)c(O)c1O)O2 | – | – | 35% | 69%
CC(C)=CCc1c(O)cc2c(c1O)C(=O)C(=Cc1cc(C(C)(C)C)c(O)c(C(C)(C)C)c1)O2 | 48% | 47% | – | –
CC(C)=CCc1c(O)cc2c(c1O)C(=O)C(=Cc1ccc(F)cc1F)O2 | 40% | 0% | – | –

Compound | AF percent inhibition ([1]; @12.5 μg/ml) | CA percent inhibition ([2]; @12.5 μg/ml) | AF percent inhibition ([1]; @8 μg/ml) | CA percent inhibition ([2]; @8 μg/ml)
CCOc1ccc(C=C2Oc3cc(O)c(CC=C(C)C)c(O)c3C2=O)cc1OC | 49% | 25% | – | –
CCOc1ccccc1C=C1Oc2cc(O)c(CC=C(C)C)c(O)c2C1=O | 51% | 25% | – | –
COc1ccccc1C=C1Oc2cc(O)c(CC=C(C)C)c(O)c2C1=O | 39% | 15% | – | –
CC(C)(C)c1cc(C=C2Oc3cc(O)cc(O)c3C2=O)cc(C(C)(C)C)c1O | 35% | 17% | – | –
O=C1C(=Cc2ccc(F)cc2F)Oc2cc(O)cc(O)c21 | 43% | 0% | – | –
CCOc1ccc(C=C2Oc3cc(O)cc(O)c3C2=O)cc1OC | CA 0% AF 0% @12.5 μg/ml | – | – | –
CCOc1ccccc1C=C1Oc2cc(O)cc(O)c2C1=O | CA 0% AF 0% @12.5 μg/ml | – | – | –
COc1ccccc1C=C1Oc2cc(O)cc(O)c2C1=O | CA 0% AF 0% @12.5 μg/ml | – | – | –
CC1(C)CCc2c(cc3c(c2O)C(=O)C(=Cc2cc(C(C)(C)C)c(O)c(C(C)(C)C)c2)O3)O1 | – | – | 68% | 69%
CC1(C)CCc2c(cc3c(c2O)C(=O)C(=Cc2ccc(F)cc2F)O3)O1 | – | – | 94% | 0%
CCOc1ccc(C=C2Oc3cc4c(c(O)c3C2=O)CCC(C)(C)O4)cc1OC | – | – | 67% | 58%
CCOc1ccccc1C=C1Oc2cc3c(c(O)c2C1=O)CCC(C)(C)O3 | – | – | 71% | 80%
COc1ccccc1C=C1Oc2cc3c(c(O)c2C1=O)CCC(C)(C)O3 | – | – | 70% | 76%
C=CCc1c(O)cc2c(c1O)C(=O)C(=Cc1cc(C(C)(C)C)c(O)c(C(C)(C)C)c1)O2 | – | – | 60% | 49%
C=CCc1c(O)cc2c(c1O)C(=O)C(=Cc1ccc(F)cc1F)O2 | – | – | 96% | 53%
C=CCc1c(O)cc2c(c1O)C(=O)C(=Cc1ccc(OCC)c(OC)c1)O2 | – | – | 69% | 65%
C=CCc1c(O)cc2c(c1O)C(=O)C(=Cc1ccccc1OCC)O2 | – | – | 52% | 22%
C=CCc1c(O)cc2c(c1O)C(=O)C(=Cc1ccccc1OC)O2 | – | – | 62% | 20%
CC(C)=CCc1c(O)cc2c(c1O)C(=O)C(=Cc1c(C)cccc1C)O2 | 0% | 7% | – | –
CC(C)=CCc1c(O)cc2c(c1O)C(=O)C(=Cc1ccccc1C)O2 | 0% | 11% | – | –
CC(C)=CCc1c(O)cc2c(c1O)C(=O)C(=Cc1ccc(C)cc1)O2 | CA 18% AF 18% @12.5 μg/ml | CA 18% AF 18% @12.5 μg/ml | – | –

Compound | AF percent inhibition ([1]; @12.5 μg/ml) | CA percent inhibition ([2]; @12.5 μg/ml) | AF percent inhibition ([1]; @8 μg/ml) | CA percent inhibition ([2]; @8 μg/ml)
CCc1ccc(C=C2Oc3cc(O)c(CC=C(C)C)c(O)c3C2=O)cc1 | 41% | 31% | – | –
CC(C)=CCc1c(O)cc2c(c1O)C(=O)C(=Cc1c(C)cc(C)cc1C)O2 | 53% | 51% | – | –
CC(C)=CCc1c(O)cc2c(c1O)C(=O)C(=Cc1cc(C)cc(C)c1)O2 | #13% @12.5 μg/ml | CA 26% AF | – | –
Cc1cccc(C)c1C=C1Oc2cc(O)cc(O)c2C1=O | CA 0% AF 0% @12.5 μg/ml | – | – | –
Cc1ccccc1C=C1Oc2cc(O)cc(O)c2C1=O | CA 0% AF 0% @12.5 μg/ml | – | – | –
Cc1ccc(C=C2Oc3cc(O)cc(O)c3C2=O)cc1 | CA 0% AF 0% @12.5 μg/ml | – | – | –
CCc1ccc(C=C2Oc3cc(O)cc(O)c3C2=O)cc1 | CA 0% AF 0% @12.5 μg/ml | – | – | –
Cc1cccc(C)c1C=C1Oc2cc3c(c(O)c2C1=O)CCC(C)(C)O3 | – | – | 97% | 82%
Cc1ccccc1C=C1Oc2cc3c(c(O)c2C1=O)CCC(C)(C)O3 | – | – | 34% | 13%
Cc1ccc(C=C2Oc3cc4c(c(O)c3C2=O)CCC(C)(C)O4)cc1 | – | – | 93% | 58%
CCc1ccc(C=C2Oc3cc4c(c(O)c3C2=O)CCC(C)(C)O4)cc1 | – | – | 68% | 73%
Cc1cc(C)c(C=C2Oc3cc4c(c(O)c3C2=O)CCC(C)(C)O4)c(C)c1 | – | – | 28% | 0%
Cc1cc(C)cc(C=C2Oc3cc4c(c(O)c3C2=O)CCC(C)(C)O4)c1 | – | – | #11% @8 μg/ml | CA 0% AF
C=CCc1c(O)cc2c(c1O)C(=O)C(=Cc1c(C)cccc1C)O2 | – | – | 49% | 7%
C=CCc1c(O)cc2c(c1O)C(=O)C(=Cc1ccccc1C)O2 | – | – | 11% | 4%
C=CCc1c(O)cc2c(c1O)C(=O)C(=Cc1ccc(C)cc1)O2 | – | – | 47% | 10%
C=CCc1c(O)cc2c(c1O)C(=O)C(=Cc1ccc(CC)cc1)O2 | – | – | 47% | 16%
C=CCc1c(O)cc2c(c1O)C(=O)C(=Cc1c(C)cc(C)cc1C)O2 | – | – | 7% | 16%
C=CCc1c(O)cc2c(c1O)C(=O)C(=Cc1cc(C)cc(C)c1)O2 | – | – | #81% @8 μg/ml | CA 42% AF
